Like-named read-outs stand apart in the source and are kept apart here.
Legend:
MCT1 [1] = target: T1, MCT1 (Rattus norvegicus, UniProt P53987); assay type: cell-based; settings: read-out: % inhibition (irreversible) at 0.2 mM
T1 sequence (P53987 1-494): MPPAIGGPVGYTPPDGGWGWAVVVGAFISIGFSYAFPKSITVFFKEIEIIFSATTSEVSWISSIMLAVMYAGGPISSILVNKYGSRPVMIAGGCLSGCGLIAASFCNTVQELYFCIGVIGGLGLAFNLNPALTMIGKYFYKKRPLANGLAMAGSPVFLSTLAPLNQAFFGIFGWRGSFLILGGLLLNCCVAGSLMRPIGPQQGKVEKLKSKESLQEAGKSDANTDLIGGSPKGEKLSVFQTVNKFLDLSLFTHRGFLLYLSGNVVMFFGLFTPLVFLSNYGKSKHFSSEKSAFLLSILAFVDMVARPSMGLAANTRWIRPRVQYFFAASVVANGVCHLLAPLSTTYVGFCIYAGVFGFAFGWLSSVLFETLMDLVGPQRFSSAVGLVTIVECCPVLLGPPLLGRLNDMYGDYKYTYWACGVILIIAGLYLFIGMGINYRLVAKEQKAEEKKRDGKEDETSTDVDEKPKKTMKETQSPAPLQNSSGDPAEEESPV

MCT1 [2] = target: T1, MCT1; assay: inhibition of L-[…]lactate uptake in Xenopus oocytes, DIDS present in assay; assay type: cell-based; settings: read-out: % inhibition (reversible) at 0.2 mM

inhibition at 200 µM (MCT1 [1]): ~60% | inhibition at 200 µM (MCT1 [2]): ~60%
SMILES: O=S(=O)(O)c1cc(N=C=S)ccc1/C=C/c1ccc(N=C=S)cc1S(=O)(=O)O [DIDS]
